In ChEMBL document CHEMBL2074063, “P-glycoprotein-mediated efflux of hydroxyrubicin, a neutral anthracycline derivative, in resistant K562 cells” (FEBS Lett, 1994):

Molecular target: ABCB1 (P-glycoprotein) (Homo sapiens, UniProt P08183)
Experiment: TP_TRANSPORTER: efflux in Doxorubicin resistant K562 cells

Chain of ABCB1 (P-glycoprotein) (P08183 whole entry): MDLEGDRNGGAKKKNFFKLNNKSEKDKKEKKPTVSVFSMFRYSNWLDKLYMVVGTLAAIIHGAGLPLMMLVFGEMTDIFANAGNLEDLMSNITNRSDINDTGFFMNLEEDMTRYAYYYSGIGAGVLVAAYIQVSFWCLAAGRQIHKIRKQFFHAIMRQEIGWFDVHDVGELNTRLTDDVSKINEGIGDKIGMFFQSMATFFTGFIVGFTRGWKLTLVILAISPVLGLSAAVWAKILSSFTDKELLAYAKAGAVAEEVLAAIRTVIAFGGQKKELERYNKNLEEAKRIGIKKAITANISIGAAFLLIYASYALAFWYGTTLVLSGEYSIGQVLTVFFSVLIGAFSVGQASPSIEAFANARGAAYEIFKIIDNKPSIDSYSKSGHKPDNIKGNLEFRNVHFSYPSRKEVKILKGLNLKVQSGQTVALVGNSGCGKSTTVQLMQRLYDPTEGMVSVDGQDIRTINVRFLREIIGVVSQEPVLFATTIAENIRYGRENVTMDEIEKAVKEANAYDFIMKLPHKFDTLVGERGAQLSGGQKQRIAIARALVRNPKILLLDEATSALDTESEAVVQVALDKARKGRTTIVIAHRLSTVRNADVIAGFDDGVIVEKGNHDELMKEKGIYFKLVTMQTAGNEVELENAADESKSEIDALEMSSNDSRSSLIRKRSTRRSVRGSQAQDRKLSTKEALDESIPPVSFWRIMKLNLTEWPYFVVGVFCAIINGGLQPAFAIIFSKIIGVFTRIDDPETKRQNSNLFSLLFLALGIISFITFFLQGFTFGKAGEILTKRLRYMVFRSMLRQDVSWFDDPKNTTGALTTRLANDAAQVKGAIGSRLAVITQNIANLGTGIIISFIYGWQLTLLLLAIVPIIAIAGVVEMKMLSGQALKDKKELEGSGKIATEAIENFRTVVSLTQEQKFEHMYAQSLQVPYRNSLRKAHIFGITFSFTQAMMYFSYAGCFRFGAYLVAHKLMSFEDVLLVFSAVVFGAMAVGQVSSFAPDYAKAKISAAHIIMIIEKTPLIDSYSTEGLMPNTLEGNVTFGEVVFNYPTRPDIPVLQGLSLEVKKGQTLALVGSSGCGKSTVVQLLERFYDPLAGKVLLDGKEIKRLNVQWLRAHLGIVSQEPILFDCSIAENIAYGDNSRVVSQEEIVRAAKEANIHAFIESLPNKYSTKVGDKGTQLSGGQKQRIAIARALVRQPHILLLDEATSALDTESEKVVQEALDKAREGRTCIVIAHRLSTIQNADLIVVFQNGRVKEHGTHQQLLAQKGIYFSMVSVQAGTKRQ

## COc1cccc2c1C(=O)c1c(O)c3c(c(O)c1C2=O)C[C@@](O)(C(=O)CO)C[C@@H]3O[C@H]1C[C@H](O)[C@H](O)[C@H](C)O1 [HYDROXYRUBICIN]
  Km: 2 µM
